Measurements from patent publication US11214803B2, “Modulators of YAP1 expression” (Ionis Pharmaceuticals, Inc., priority 2019, dated 2022).
Strand notation (5' to 3'): a small letter for the sugar, then the base; units joined by * are phosphorothioate-linked, units joined directly phosphodiester-linked; [ ] holds rarer units or linkages, { } end groups; capitals alone tell only the bases. k = constrained ethyl (cEt); [5mC] = 5-methylcytosine; d = 2'-deoxy (DNA)

Tested on: Yap1 mRNA
Assay: Dose-dependent inhibition of human Yap1 in A-431 cells (Example 8, 10,000 cells per well, RTS4814)
Format: cell-based
Details: free uptake, approximately 48 hours, RTS4814; for Yap1 mRNA, % UTC: A-431 cells, 10,000 cells per well; for IC50: A-431 cells, linear regression on log/linear plot
Protocol: Modified oligonucleotides described in the studies above were tested at various doses in A-431 cells. Cultured A-431 cells at a density of 10,000 cells per well were treated using free uptake with modified oligonucleotides diluted to concentrations described in the tables below. After approximately 48 hours, Yap1 mRNA levels were measured as previously described using the Human Yap1 primer-probe set RTS4814. Yap1 mRNA levels were normalized to total RNA content, as measured by RIBOGREEN®. Results are presented in the tables below as percent control of the amount of Yap1 mRNA relative to untreated control cells (% UTC). IC50s were calculated using a linear regression on a log/linear plot of the data in excel.

1074564 (DNA k[5mC]*kT*kG*dA*dA*dT*dT*d[5mC]*d[5mC]*dA*dA*dT*d[5mC]*kG*kA*kG) [compound 1074564]
Yap1 mRNA, % UTC (31.3 nM): 40 % UTC
Yap1 mRNA, % UTC (125.0 nM): 14 % UTC
Yap1 mRNA, % UTC (500.0 nM): 7 % UTC
Yap1 mRNA, % UTC (2000.00 nM): 4 % UTC
IC50: < 0.02 µM

1076326 (kG*k[5mC]*kT*dA*dA*dT*dA*dA*dT*dG*dG*dA*dA*kG*kA*kG; antisense) [compound 1076326]
Yap1 mRNA, % UTC (31.3 nM): 53 % UTC
Yap1 mRNA, % UTC (125.0 nM): 20 % UTC
Yap1 mRNA, % UTC (500.0 nM): 6 % UTC
Yap1 mRNA, % UTC (2000.00 nM): 3 % UTC
IC50: < 0.02 µM

1075785 (k[5mC]*kA*kT*dT*dT*dT*dA*dT*dA*dG*dG*dG*d[5mC]*k[5mC]*kA*kT; antisense) [compound 1075785]
Yap1 mRNA, % UTC (31.3 nM): 29 % UTC
Yap1 mRNA, % UTC (125.0 nM): 7 % UTC
Yap1 mRNA, % UTC (500.0 nM): 3 % UTC
Yap1 mRNA, % UTC (2000.00 nM): 3 % UTC
IC50: < 0.02 µM

1074593 (DNA kA*kG*kG*dA*dG*d[5mC]*dA*dA*dG*dT*d[5mC]*dT*dT*kG*kT*kA) [compound 1074593]
Yap1 mRNA, % UTC (31.3 nM): 50 % UTC
Yap1 mRNA, % UTC (125.0 nM): 20 % UTC
Yap1 mRNA, % UTC (500.0 nM): 9 % UTC
Yap1 mRNA, % UTC (2000.00 nM): 8 % UTC
IC50: < 0.02 µM

1075401 (antisense k[5mC]*kG*kA*dT*dT*dA*dA*dA*dA*d[5mC]*dA*d[5mC]*dT*kG*kG*kT) [compound 1075401]
Yap1 mRNA, % UTC (31.3 nM): 62 % UTC
Yap1 mRNA, % UTC (125.0 nM): 26 % UTC
Yap1 mRNA, % UTC (500.0 nM): 11 % UTC
Yap1 mRNA, % UTC (2000.00 nM): 7 % UTC
IC50: 0.04 µM

1075048 (antisense kG*kT*kA*dA*dA*dA*dT*dT*dA*dG*dA*d[5mC]*dT*k[5mC]*k[5mC]*k[5mC]) [compound 1075048]
Yap1 mRNA, % UTC (31.3 nM): 76 % UTC
Yap1 mRNA, % UTC (125.0 nM): 42 % UTC
Yap1 mRNA, % UTC (500.0 nM): 13 % UTC
Yap1 mRNA, % UTC (2000.00 nM): 5 % UTC
IC50: 0.1 µM

1074560 (DNA k[5mC]*k[5mC]*kA*dA*dT*d[5mC]*dG*dA*dG*dA*d[5mC]*dT*dT*kA*kA*kA) [compound 1074560]
Yap1 mRNA, % UTC (31.3 nM): 50 % UTC
Yap1 mRNA, % UTC (125.0 nM): 16 % UTC
Yap1 mRNA, % UTC (500.0 nM): 6 % UTC
Yap1 mRNA, % UTC (2000.00 nM): 4 % UTC
IC50: < 0.02 µM

1075968 (kT*kA*kT*dT*dT*dA*dA*dG*d[5mC]*d[5mC]*dA*dA*dA*k[5mC]*k[5mC]*kG; antisense) [compound 1075968]
Yap1 mRNA, % UTC (31.3 nM): 74 % UTC
Yap1 mRNA, % UTC (125.0 nM): 37 % UTC
Yap1 mRNA, % UTC (500.0 nM): 11 % UTC
Yap1 mRNA, % UTC (2000.00 nM): 5 % UTC
IC50: 0.1 µM

1076323 (k[5mC]*kA*kA*dT*dT*dT*dA*d[5mC]*dA*dA*dG*dT*dG*kA*kG*k[5mC]; antisense) [compound 1076323]
Yap1 mRNA, % UTC (31.3 nM): 41 % UTC
Yap1 mRNA, % UTC (125.0 nM): 35 % UTC
Yap1 mRNA, % UTC (500.0 nM): 13 % UTC
Yap1 mRNA, % UTC (2000.00 nM): 5 % UTC
IC50: < 0.02 µM

1075138 (kA*kA*kT*dA*dA*dT*dA*dG*dA*dT*dA*d[5mC]*dT*kG*k[5mC]*k[5mC]; antisense) [compound 1075138]
Yap1 mRNA, % UTC (31.3 nM): 66 % UTC
Yap1 mRNA, % UTC (125.0 nM): 27 % UTC
Yap1 mRNA, % UTC (500.0 nM): 8 % UTC
Yap1 mRNA, % UTC (2000.00 nM): 5 % UTC
IC50: 0.05 µM

1076256 (kT*kT*kA*dT*dT*dT*dA*dG*dG*d[5mC]*d[5mC]*d[5mC]*d[5mC]*kA*kT*kA; antisense) [compound 1076256]
Yap1 mRNA, % UTC (31.3 nM): 68 % UTC
Yap1 mRNA, % UTC (125.0 nM): 33 % UTC
Yap1 mRNA, % UTC (500.0 nM): 11 % UTC
Yap1 mRNA, % UTC (2000.00 nM): 6 % UTC
IC50: 0.1 µM

1076291 (kG*kA*kT*dT*dA*dA*dT*dG*dG*dT*dG*dG*d[5mC]*kA*kT*kT; antisense) [compound 1076291]
Yap1 mRNA, % UTC (31.3 nM): 75 % UTC
Yap1 mRNA, % UTC (125.0 nM): 26 % UTC
Yap1 mRNA, % UTC (500.0 nM): 8 % UTC
Yap1 mRNA, % UTC (2000.00 nM): 5 % UTC
IC50: 0.1 µM

1076456 (k[5mC]*kT*kT*dT*dA*dA*dA*dG*dT*dG*dT*dA*dT*kG*kT*k[5mC]) [compound 1076456]
Yap1 mRNA, % UTC (31.3 nM): 43 % UTC
Yap1 mRNA, % UTC (125.0 nM): 14 % UTC
Yap1 mRNA, % UTC (500.0 nM): 5 % UTC
Yap1 mRNA, % UTC (2000.00 nM): 3 % UTC
IC50: < 0.02 µM

1074315 (antisense kG*kA*kT*dT*dG*dA*dT*dA*dT*dT*d[5mC]*d[5mC]*dG*k[5mC]*kA*kT) [compound 1074315]
Yap1 mRNA, % UTC (31.3 nM): 57 % UTC
Yap1 mRNA, % UTC (125.0 nM): 26 % UTC
Yap1 mRNA, % UTC (500.0 nM): 9 % UTC
Yap1 mRNA, % UTC (2000.00 nM): 5 % UTC
IC50: 0.03 µM

1075137 (kG*kA*kT*dT*dA*dA*dA*dT*dA*d[5mC]*dT*dG*dA*k[5mC]*k[5mC]*kA; antisense) [compound 1075137]
Yap1 mRNA, % UTC (31.3 nM): 70 % UTC
Yap1 mRNA, % UTC (125.0 nM): 22 % UTC
Yap1 mRNA, % UTC (500.0 nM): 8 % UTC
Yap1 mRNA, % UTC (2000.00 nM): 4 % UTC
IC50: 0.1 µM

1075458 (antisense k[5mC]*k[5mC]*kA*d[5mC]*dA*dA*dT*dA*dT*dA*d[5mC]*dT*d[5mC]*k[5mC]*kA*kA) [compound 1075458]
Yap1 mRNA, % UTC (31.3 nM): 74 % UTC
Yap1 mRNA, % UTC (125.0 nM): 43 % UTC
Yap1 mRNA, % UTC (500.0 nM): 17 % UTC
Yap1 mRNA, % UTC (2000.00 nM): 6 % UTC
IC50: 0.1 µM

1074726 (antisense kG*kG*kT*dA*dT*dA*dA*d[5mC]*dT*dG*dG*dG*d[5mC]*kA*kA*kA) [compound 1074726]
Yap1 mRNA, % UTC (31.3 nM): 26 % UTC
Yap1 mRNA, % UTC (125.0 nM): 8 % UTC
Yap1 mRNA, % UTC (500.0 nM): 4 % UTC
Yap1 mRNA, % UTC (2000.00 nM): 3 % UTC
IC50: < 0.02 µM

1074723 (antisense kG*kG*kT*dA*dA*dA*dG*dG*dA*dA*dG*dA*dT*k[5mC]*kT*k[5mC]) [compound 1074723]
Yap1 mRNA, % UTC (31.3 nM): 56 % UTC
Yap1 mRNA, % UTC (125.0 nM): 24 % UTC
Yap1 mRNA, % UTC (500.0 nM): 11 % UTC
Yap1 mRNA, % UTC (2000.00 nM): 8 % UTC
IC50: < 0.02 µM

1076330 (antisense kG*kA*kA*dT*dT*dA*dT*dA*d[5mC]*dT*dG*dG*d[5mC]*kT*kA*k[5mC]) [compound 1076330]
Yap1 mRNA, % UTC (31.3 nM): 57 % UTC
Yap1 mRNA, % UTC (125.0 nM): 31 % UTC
Yap1 mRNA, % UTC (500.0 nM): 9 % UTC
Yap1 mRNA, % UTC (2000.00 nM): 4 % UTC
IC50: 0.04 µM

1076490 (k[5mC]*k[5mC]*kA*dA*dA*dA*dT*dA*dG*dG*dT*dG*dA*kG*kT*k[5mC]; antisense) [compound 1076490]
Yap1 mRNA, % UTC (31.3 nM): 36 % UTC
Yap1 mRNA, % UTC (125.0 nM): 9 % UTC
Yap1 mRNA, % UTC (500.0 nM): 4 % UTC
Yap1 mRNA, % UTC (2000.00 nM): 3 % UTC
IC50: < 0.02 µM

1075778 (k[5mC]*kA*kT*dT*dT*dA*dT*dA*d[5mC]*d[5mC]*dA*dG*dG*k[5mC]*kA*k[5mC]; antisense) [compound 1075778]
Yap1 mRNA, % UTC (31.3 nM): 56 % UTC
Yap1 mRNA, % UTC (125.0 nM): 29 % UTC
Yap1 mRNA, % UTC (500.0 nM): 10 % UTC
Yap1 mRNA, % UTC (2000.00 nM): 5 % UTC
IC50: 0.03 µM

1075784 (kA*kT*kT*dT*dT*dA*dT*dA*dG*dG*dG*d[5mC]*d[5mC]*kA*kT*kT; antisense) [compound 1075784]
Yap1 mRNA, % UTC (31.3 nM): 54 % UTC
Yap1 mRNA, % UTC (125.0 nM): 18 % UTC
Yap1 mRNA, % UTC (500.0 nM): 5 % UTC
Yap1 mRNA, % UTC (2000.00 nM): 3 % UTC
IC50: < 0.02 µM

1076448 (k[5mC]*kT*kT*dA*dT*dA*dA*dT*dG*d[5mC]*dA*dA*dT*k[5mC]*k[5mC]*kT; antisense) [compound 1076448]
Yap1 mRNA, % UTC (31.3 nM): 61 % UTC
Yap1 mRNA, % UTC (125.0 nM): 19 % UTC
Yap1 mRNA, % UTC (500.0 nM): 4 % UTC
Yap1 mRNA, % UTC (2000.00 nM): 3 % UTC
IC50: < 0.02 µM
